Each structure is given as a SMILES string.

Chain of human ACC2 (O00763 129-2458): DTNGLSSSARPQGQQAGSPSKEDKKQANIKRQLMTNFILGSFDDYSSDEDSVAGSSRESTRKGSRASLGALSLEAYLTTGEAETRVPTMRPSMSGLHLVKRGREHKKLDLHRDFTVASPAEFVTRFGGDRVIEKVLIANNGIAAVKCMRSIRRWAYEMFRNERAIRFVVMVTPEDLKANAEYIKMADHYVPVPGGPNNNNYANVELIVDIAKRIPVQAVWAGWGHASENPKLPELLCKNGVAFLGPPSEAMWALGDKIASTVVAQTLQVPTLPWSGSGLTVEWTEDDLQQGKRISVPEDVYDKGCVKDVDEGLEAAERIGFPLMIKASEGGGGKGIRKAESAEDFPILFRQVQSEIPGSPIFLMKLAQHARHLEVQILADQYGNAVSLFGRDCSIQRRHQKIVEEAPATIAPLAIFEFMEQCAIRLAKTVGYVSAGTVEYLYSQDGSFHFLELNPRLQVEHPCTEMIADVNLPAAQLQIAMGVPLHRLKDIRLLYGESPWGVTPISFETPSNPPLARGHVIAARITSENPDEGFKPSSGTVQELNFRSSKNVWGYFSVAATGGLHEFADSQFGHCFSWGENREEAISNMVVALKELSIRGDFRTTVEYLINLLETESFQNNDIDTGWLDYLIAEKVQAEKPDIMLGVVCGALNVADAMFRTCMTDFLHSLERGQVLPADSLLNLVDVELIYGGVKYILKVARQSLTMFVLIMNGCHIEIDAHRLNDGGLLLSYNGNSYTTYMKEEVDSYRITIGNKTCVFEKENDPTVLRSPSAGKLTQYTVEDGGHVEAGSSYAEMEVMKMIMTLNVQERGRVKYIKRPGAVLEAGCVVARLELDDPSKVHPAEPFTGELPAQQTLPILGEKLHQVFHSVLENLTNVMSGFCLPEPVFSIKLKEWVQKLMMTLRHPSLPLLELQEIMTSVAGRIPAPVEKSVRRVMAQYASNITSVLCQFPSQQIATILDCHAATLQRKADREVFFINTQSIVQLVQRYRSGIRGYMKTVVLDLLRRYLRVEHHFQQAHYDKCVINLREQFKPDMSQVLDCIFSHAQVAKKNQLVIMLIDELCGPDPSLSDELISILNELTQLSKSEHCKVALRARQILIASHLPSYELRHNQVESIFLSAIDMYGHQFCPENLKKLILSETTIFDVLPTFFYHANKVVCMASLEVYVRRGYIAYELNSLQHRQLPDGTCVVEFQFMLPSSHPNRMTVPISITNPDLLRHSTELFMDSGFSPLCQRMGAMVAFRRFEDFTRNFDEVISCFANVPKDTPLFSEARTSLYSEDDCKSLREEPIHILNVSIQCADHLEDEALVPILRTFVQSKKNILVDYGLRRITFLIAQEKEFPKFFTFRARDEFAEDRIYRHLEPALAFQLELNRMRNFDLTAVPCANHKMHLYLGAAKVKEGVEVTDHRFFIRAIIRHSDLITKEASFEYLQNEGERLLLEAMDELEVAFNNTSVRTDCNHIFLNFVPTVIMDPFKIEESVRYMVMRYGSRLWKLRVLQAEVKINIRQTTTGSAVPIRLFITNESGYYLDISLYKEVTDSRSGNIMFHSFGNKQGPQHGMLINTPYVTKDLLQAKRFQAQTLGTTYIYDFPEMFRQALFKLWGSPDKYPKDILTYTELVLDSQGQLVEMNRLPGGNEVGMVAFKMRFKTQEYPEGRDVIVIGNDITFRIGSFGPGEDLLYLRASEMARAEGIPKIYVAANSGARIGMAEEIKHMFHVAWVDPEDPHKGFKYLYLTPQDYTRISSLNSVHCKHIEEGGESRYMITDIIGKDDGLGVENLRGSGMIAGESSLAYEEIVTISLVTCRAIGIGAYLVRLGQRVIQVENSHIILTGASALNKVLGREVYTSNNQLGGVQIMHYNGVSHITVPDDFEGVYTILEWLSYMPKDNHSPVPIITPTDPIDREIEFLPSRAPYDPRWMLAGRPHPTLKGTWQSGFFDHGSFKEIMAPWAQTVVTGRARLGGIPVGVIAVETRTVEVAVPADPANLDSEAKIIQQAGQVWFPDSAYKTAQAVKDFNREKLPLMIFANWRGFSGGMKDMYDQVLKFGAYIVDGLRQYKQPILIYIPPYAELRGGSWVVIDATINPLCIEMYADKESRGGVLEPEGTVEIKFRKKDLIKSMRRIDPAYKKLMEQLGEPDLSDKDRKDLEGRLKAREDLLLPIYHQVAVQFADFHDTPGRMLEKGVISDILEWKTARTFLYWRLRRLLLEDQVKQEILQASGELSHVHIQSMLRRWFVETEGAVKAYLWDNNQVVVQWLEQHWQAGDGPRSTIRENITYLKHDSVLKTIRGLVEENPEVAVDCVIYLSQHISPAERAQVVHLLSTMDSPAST

The assay concerns the target human ACC2 (Homo sapiens (Human), UniProt O00763). Description: ACC2 assay (spectrophotometric 384 well assay, NADH-linked kinetic method). Conditions: hACC2 construct lacking the 128 N-terminal amino acids; 25° C., 340 nm over 15 minutes. The assay is classed as biochemical. As to the method:
Spectrophotometric 384 Well Assay
Malonyl CoA formation by acetyl CoA carboxylases is stoichometrically linked to the consumption of ATP. ACC2 activity is measured in a NADH-linked kinetic method measuring ADP generated during the ACC reaction using a coupled lactate dehydrogenase/pyruvate kinase reaction.
The protein is then expressed in insect cells using a baculoviral expression system. Protein purification is performed by anion exchange.
All compounds are dissolved in dimethyl sulfoxide (DMSO) to a concentration of 10 mM.
The enzymatic reaction is then started by addition of a mixture of NADH, acetyl
Coenzyme A (both […].) and ATP (500 uM f.c.). The decrease of the optical density (slope S) is then determined at 25° C. at a wavelength of 340 nm over 15 minutes in a spectrophotometric reader.
Each assay microtiter plate contains wells with vehicle instead of compound as controls for the non-inhibited enzyme (100% CTL; ‘HIGH’) and wells without acetyl-CoA as controls for non-specific NADH degradation (0% CTL; ‘LOW’).
By IC50 is commonly meant the concentration at which inhibition is half-maximal. A low value points to higher potency. Compound `C=CCCNC(=O)C(C)c1ccc(O[C@@H]2CCN(c3ccnc(NCCC)c3F)C2)cc1` (some centres unmarked) [Example 1.71] came in with an IC50 of 779 nM.
The same measure for `CC[C@@H](C)NC(=O)C(C)c1ccc(O[C@@H]2CCN(c3ncnc(OCC(C)(C)O)c3Cl)C2)cc1` (some centres unmarked) [Example 1.47]: 472 nM; for `CCNC(=O)C(C)c1ccc(O[C@@H]2CCN(c3ccc(OCC4CC4)nc3)C2)cc1` (some centres unmarked) [Example 7.24]: 473 nM; for `CC(C(=O)NC1CC1C)c1ccc(O[C@@H]2CCN(c3ncnc(OCC(C)(C)O)c3F)C2)cc1` (some centres unmarked) [Example 3.2]: 259 nM.
The same measure for `C=C(C)CNC(=O)C(C)c1ccc(O[C@@H]2CCN(c3nc(N(C)C)ncc3F)C2)cc1` (some centres unmarked) [Example 1.44]: 454 nM; for `CCNC(=O)C(C)c1ccc(O[C@@H]2CCN(c3ncnc(OCC(C)(C)O)c3F)C2)cc1` (some centres unmarked) [Example 3.8]: 622 nM.
The same measure for `CCCOc1ccc(N2CC[C@@H](Oc3ccc(C(C)C(=O)NCC)cc3)C2)c(Cl)c1` (some centres unmarked) [Example 7.5]: 225 nM; for `CCCNc1nccc(N2CC[C@@H](Oc3ccc(C(C)C(=O)NC(C)CO)cc3)C2)c1F` (some centres unmarked) [Example 1.72]: 789 nM.
With `CCNC(=O)C(C)c1ccc(O[C@@H]2CCN(c3ccnc(C4CC4)n3)C2)cc1` (stereo partly drawn) [Example 5, 2-(4-[1-(2-Cyclopropyl-pyrimidin-4-yl)-(R)-pyrrolidin-3-yloxy]-phenyl)-N-ethyl-propionamide], half-maximal inhibition (IC50) was put at 1760 nM.
`CC(C(=O)NC1CC1C)c1ccc(O[C@@H]2CCN(c3nc(N(C)C)ncc3F)C2)cc1` (single isomer, unassigned) [6.2 isomer 4] had an IC50 of 1480 nM.
In turn, `C#CCNC(=O)C(C)c1ccc(O[C@@H]2CCN(c3ccnc(NCCC)c3F)C2)cc1` (some centres unmarked) [Example 1.16] displayed an IC50 of 266 nM.
Take `CC(C(=O)NC1CC1C)c1ccc(O[C@@H]2CCN(c3ncnc(OCC(C)(C)O)c3Cl)C2)cc1` (some centres unmarked) [Example 1.26]: the IC50 was 325 nM.
The value for `CC(C(=O)NC1COC1)c1ccc(O[C@@H]2CCN(c3ccc(OCC4CC4(F)F)cn3)C2)cc1` (some centres unmarked) [Example 1.67] was 706 nM.
`CC(C)NC(=O)C(C)c1ccc(O[C@@H]2CCN(c3ncnc(OCC(C)(C)O)c3Cl)C2)cc1` (some centres unmarked) [Example 1.49] came in with an IC50 of 492 nM.
The same measure for `CCNC(=O)C(C)c1ccc(O[C@@H]2CCN(c3ccc(OCC4CC4(F)F)nc3C#N)C2)cc1` (some centres unmarked) [Example 7.23]: 470 nM; for `CCNC(=O)C(C)c1ccc(O[C@@H]2CCN(c3cccc(N(C)C)n3)C2)cc1` (some centres unmarked) [Example 7.20]: 445 nM; for `CCNC(=O)C(C)c1ccc(O[C@@H]2CCN(c3ccc(OC4CCC4)cc3)C2)cc1` (stereo partly drawn) [Example 7.1, 2-(4-[1-(4-Cyclobutoxy-phenyl)-(R)-pyrrolidin-3-yloxy]-phenyl)-N-ethyl-propionamide]: 41 nM.
For `CC(C(=O)NC1CC1C)c1ccc(O[C@@H]2CCN(c3ncnc(OCC(C)(C)O)c3Cl)C2)cc1` (some centres unmarked) [Example 1.13], the IC50 stood at 233 nM.
The value for `CC(C(=O)Nc1cncnc1)c1ccc(O[C@@H]2CCN(c3ccc(OCC4CC4(F)F)cn3)C2)cc1` (some centres unmarked) [Example 1.70] was 749 nM.
The value for `CCNC(=O)C(C)c1ccc(O[C@@H]2CCN(c3cccc(OC(C)CC)c3)C2)cc1` (some centres unmarked) [Example 7.30] was 630 nM; that for `CCNC(=O)C(C)c1ccc(O[C@@H]2CCN(c3ccnc(C(F)(F)F)n3)C2)cc1` (some centres unmarked) [Example 9.2] was 975 nM; that for `CCNC(=O)C(C)c1ccc(O[C@@H]2CCN(c3ccc(OC4CCCCC4)nc3)C2)cc1` (some centres unmarked) [Example 7.28] was 583 nM.
The value for `CC(C(=O)NCC(F)(F)F)c1ccc(O[C@@H]2CCN(c3ncnc(OCC(C)(F)F)c3F)C2)cc1` (some centres unmarked) [Example 1.64] was 658 nM; that for `CC[C@@H](C)NC(=O)C(C)c1ccc(O[C@@H]2CCN(c3ncnc(OCC(C)(F)F)c3F)C2)cc1` (some centres unmarked) [Example 1.59] was 603 nM; that for `CCCNC(=O)C(C)c1ccc(O[C@@H]2CCN(c3ccnc(NCCC)c3F)C2)cc1` (some centres unmarked) [Example 1.32] was 402 nM.
Consider `CCNC(=O)C(C)c1ccc(O[C@@H]2CCN(c3ncc(OC(C)C)cc3F)C2)cc1` (some centres unmarked) [Example 8.3], for which it took 543 nM to reach half-maximal inhibition (IC50).
The value for `CC(C(=O)Nc1cccc(F)c1)c1ccc(O[C@@H]2CCN(c3nc(N(C)C)ncc3F)C2)cc1` (some centres unmarked) [Example 3.4] was 300 nM; that for `CCNC(=O)C(C)c1ccc(O[C@@H]2CCN(c3nc(N(C)C)ncc3F)C2)cc1` (single isomer, unassigned) [6.6 isomer 1] was 126 nM; that for `CC(C(=O)NC1CC1)c1ccc(O[C@@H]2CCN(c3ccc(OCC4CC4(F)F)cn3)C2)cc1` (some centres unmarked) [Example 1.8] was 179 nM.
`CCCNc1ncnc(N2CC[C@@H](Oc3ccc(C(C)C(=O)NCC(F)F)cc3)C2)c1F` (some centres unmarked) [Example 3.10] returned a half-maximal inhibitory concentration (IC50) of 955 nM.
`CC(C(=O)NC1CCC1)c1ccc(O[C@@H]2CCN(c3ncnc(OCC(C)(F)F)c3F)C2)cc1` (some centres unmarked) [Example 1.66]: inhibition was half-maximal at 687 nM (IC50).
The same measure for `CCCNc1nccc(N2CC[C@@H](Oc3ccc(C(C)C(=O)NC4CC4C)cc3)C2)c1F` (single isomer, unassigned) [Example 1.4]: 118 nM.
The value for `CCNC(=O)C(C)c1ccc(O[C@@H]2CCN(c3ccc(OCC)cc3)C2)cc1` (stereo partly drawn) [Example 4.1, 2-(4-[1-(4-Ethoxyl-phenyl)-(R)-pyrrolidin-3-yloxy]-phenyl)-N-ethyl-propionamide] was 288 nM; that for `CC(C(=O)NCC(F)F)c1ccc(O[C@@H]2CCN(c3ncnc(OCC(C)(F)F)c3F)C2)cc1` (some centres unmarked) [Example 1.46] was 470 nM; that for `CC(C(=O)Nc1cccnc1)c1ccc(O[C@@H]2CCN(c3ncnc(OCC(C)(C)O)c3Cl)C2)cc1` (some centres unmarked) [Example 3.5] was 318 nM.
The same measure for `CC(C(=O)NCC(F)F)c1ccc(O[C@@H]2CCN(c3ncnc(OCC(C)(C)O)c3F)C2)cc1` (some centres unmarked) [Example 3.7]: 613 nM; for `CCNC(=O)C(C)c1ccc(O[C@@H]2CCN(c3ccc(OC(C)CC)cc3)C2)cc1` (some centres unmarked) [Example 7.14]: 407 nM; for `CCN(C)C(=O)C(C)c1ccc(O[C@@H]2CCN(c3ccc(OCC4CC4(F)F)cn3)C2)cc1` (some centres unmarked) [Example 1.73]: 798 nM.
In turn, `CCNC(=O)C(C)c1ccc(O[C@@H]2CCN(c3ncnc(OCC(C)(C)O)c3Cl)C2)cc1` (single isomer, unassigned) [6.3 isomer 1] registered an IC50 of 95 nM.
The same measure for `CC(C(=O)NC1CC1C)c1ccc(O[C@@H]2CCN(c3ncnc(OCC(C)(C)O)c3Cl)C2)cc1` (single isomer, unassigned) [6.4 isomer 2]: 681 nM; for `C=C(C)CNC(=O)C(C)c1ccc(O[C@@H]2CCN(c3ncnc(OCC(C)(C)O)c3Cl)C2)cc1` (some centres unmarked) [Example 1.23]: 315 nM; for `C=C(C)CNC(=O)C(C)c1ccc(O[C@@H]2CCN(c3ccc(OCC4CC4(F)F)cn3)C2)cc1` (some centres unmarked) [Example 1.37]: 418 nM.
The same measure for `CC(C(=O)NCC(F)(F)F)c1ccc(O[C@@H]2CCN(c3nc(N(C)C)ncc3F)C2)cc1` (some centres unmarked) [Example 1.69]: 748 nM; for `CC(C(=O)NCC1CC1)c1ccc(O[C@@H]2CCN(c3ncnc(OCC(C)(C)O)c3Cl)C2)cc1` (some centres unmarked) [Example 1.83]: 1070 nM.
The value for `CC(C(=O)N1CC(F)C1)c1ccc(O[C@@H]2CCN(c3nc(N(C)C)ncc3F)C2)cc1` (some centres unmarked) [Example 1.93] was 5480 nM; that for `CC(CO)NC(=O)C(C)c1ccc(O[C@@H]2CCN(c3ncnc(OCC(C)(F)F)c3F)C2)cc1` (some centres unmarked) [Example 1.76] was 838 nM; that for `C=C(C)CNC(=O)C(C)c1ccc(O[C@@H]2CCN(c3ccnc(NCCC)c3F)C2)cc1` (some centres unmarked) [Example 1.18] was 286 nM.
Turning to `CCNC(=O)C(C)c1ccc(O[C@@H]2CCN(c3ccc(F)c(Cl)c3)C2)cc1` (some centres unmarked) [Example 7.31], 639 nM corresponded to half-maximal inhibition (IC50).
The value for `CC(=O)Nc1nc(CNC(=O)C(C)c2ccc(O[C@@H]3CCN(c4ncnc(OCC(C)(F)F)c4F)C3)cc2)cs1` (some centres unmarked) [Example 1.87] was 1380 nM.
The same measure for `CC(C(=O)Nc1cccnc1)c1ccc(O[C@@H]2CCN(c3ncnc(OCC(C)(F)F)c3F)C2)cc1` (some centres unmarked) [Example 1.48]: 480 nM.
The value for `CC(C(=O)NCCCO)c1ccc(O[C@@H]2CCN(c3ccc(OCC4CC4(F)F)cn3)C2)cc1` (some centres unmarked) [Example 1.86] was 1380 nM; that for `CCNC(=O)C(C)c1ccc(O[C@@H]2CCN(c3ccc(F)c(C(F)(F)F)n3)C2)cc1` (some centres unmarked) [Example 8.2] was 353 nM; that for `CCNC(=O)C(C)c1ccc(O[C@@H]2CCN(c3ccc(OC4CCCC4)cc3)C2)cc1` (some centres unmarked) [Example 7.2] was 72 nM.
In turn, `C=CCNC(=O)C(C)c1ccc(O[C@@H]2CCN(c3ncnc(OCC(C)(C)O)c3Cl)C2)cc1` (some centres unmarked) [Example 1.25] came in with an IC50 of 322 nM.
The same measure for `C#CCNC(=O)C(C)c1ccc(O[C@@H]2CCN(c3ncnc(OCC(C)(C)O)c3Cl)C2)cc1` (some centres unmarked) [Example 1.20]: 306 nM.
The value for `CCNC(=O)C(C)c1ccc(O[C@@H]2CCN(c3ncc(OC4CCCC4)cc3F)C2)cc1` (stereo partly drawn) [Example 8.1, 2-(4-[1-(5-Cyclopentyloxy-3-fluoro-pyridin-2-yl)-(R)-pyrrolidin-3-yloxy]-phenyl)-N-ethyl-propionamide] was 104 nM; that for `CC(C(=O)NC1CC1)c1ccc(O[C@@H]2CCN(c3nc(N(C)C)ncc3F)C2)cc1` (some centres unmarked) [Example 1.7] was 170 nM; that for `CCNC(=O)C(C)c1ccc(O[C@@H]2CCN(c3ccc4c(c3)OCCCO4)C2)cc1` (some centres unmarked) [Example 7.10] was 329 nM.
The same measure for `CCNC(=O)C(C)c1ccc(O[C@@H]2CCN(c3ccc(OCC4CCC4)cc3)C2)cc1` (some centres unmarked) [Example 7.18]: 429 nM.
